{"source": "patent US5972894A", "about": "“Peptides having potassium channel opener activity” (Cytran, Inc., priority 1997, dated 1999)", "key": {"mice": {"system": "mice", "assay": "Chloroform-induced arrhythmia", "type": "in vivo"}, "Intestinal Smooth Muscle": {"system": "Intestinal Smooth Muscle", "assay": "Calcium-induced contraction of intestinal smooth muscle specimens", "type": "cell-based, guinea pigs", "conditions": "for Contraction Amplitude, calcium-induced (% of control level): 20 mM CaCl2", "method": "GE and VT served as test substances in this experiment. GE was tested at concentrations of 10^-6 g/ml and 10^-5 g/ml (4.9×10^-6 M and 4.9×10^-5 M, respectively), and VT was tested at concentrations 10^-6 g/ml and 10^-5 g/ml (4.58×10^-6 and 4.58×10^-5 M, respectively).\nSmall intestinal SMS samples from ten guinea pigs were surgically isolated and prepared as follows. First, the SMS samples were preincubated for 40 minutes in an organ bath holding a standard Krebs-Henseleit physiological salt solution containing calcium chloride (CaCl2) at concentration of 2.5 mM. Next, each SMS was washed with a calcium-free solution of Krebs-Henseleit and incubated in a calcium-free Krebs-Henseleit solution for 40 minutes. Contractile activity was pre-induced in each SMS by first perfusing the organ bath containing the sample for 15 minutes with a Krebs-Henseleit solution containing 30 mM KCl and then perfusing the bath for an additional 15 minutes with a Krebs-Henseleit solution containing 20 mM CaCl2. Finally, each SMS sample was washed with a calcium-free Krebs-Henseleit solution for 40 minutes. In these experiments, measurements of the contractile response of the SMS following the addition of a Krebs-Henseleit solution containing 20 mM calcium served as the control (baseline). Changes in contraction amplitudes were recorded by using the method set forth in Step 1 of Example 2, above.\nAfter washing the SMS as outlined in Step 1, the organ bath with the SMS sample was perfused for 15 minutes with the solution of a test or reference substance. In this instance, GE and VT served as the test substances, and each dipeptide was tested at a concentration of 10^-6 g/ml.\nFollowing perfusion with the test or reference substance, the SMS sample/organ bath was perfused for 10 minutes with a Krebs-Henseleit solution containing 30 mM KCl and then perfused for an additional 10 minutes with a Krebs-Henseleit solution containing 20 mM CaCl2. Next, each SMS sample was washed with a calcium-free Krebs-Henseleit solution for 40 minutes. The effect of the test or reference substance on the SMS sample was evaluated by measuring the contractile response (i.e., the change in contraction amplitude) of the sample following the addition of the Krebs-Henseleit solution containing 20 mM CaCl2.\nNext, the organ bath was perfused for 10 minutes with a Krebs-Henseleit solution containing 30 mM KCl and then for additional 10 minutes with a Krebs-Henseleit solution containing 20 mM CaCl2. The effect of the respective test or reference substance was evaluated a second time by measuring the change in the contraction amplitude of the SMS following the addition of the Krebs-Henseleit solution containing 20 mM CaCl2. […]"}, "Rat Portal Vein": {"system": "Rat Portal Vein", "assay": "KCl-induced tonic contraction of rat portal vein smooth muscle specimens", "type": "cell-based", "method": "Spontaneous contraction curve values for each SMS were recorded by making repetitive measurements of the spontaneous contractile activity of each sample at 2, 5, 10, and 15 minutes after the addition of the test or reference substance to each SMS/organ bath. Next, 0.5 ml of a solution of 600 mM solution of KCl in […] in the organ bath until a final concentration of 60 mM KCl was achieved. The contractile activity of each SMS was then measured for 5 minutes."}, "[1]": {"conditions": "0.001 mg/kg i.p. 15 min before chloroform"}, "[2]": {"conditions": "0.01 mg/kg i.p. 15 min before chloroform"}, "[3]": {"conditions": "0.1 mg/kg i.p. 15 min before chloroform"}, "[4]": {"conditions": "1.0 mg/kg i.p. 15 min before chloroform"}, "[5]": {"conditions": "10.0 mg/kg i.p. 15 min before chloroform"}}, "note": "Residues, ends and D or L forms follow the SMILES beside them."}
{"molecule": "NCC(=O)N[C@@H](CCC(=O)O)C(=O)O", "note": "[GE, L-Glycyl-L-Glutamic acid] (H-Gly-Glu-OH)", "values": [{"measurement": "Antiarrhythmic Effect (no. animals) %", "setting": "mice; [1]", "value": 11.1, "unit": "%"}, {"measurement": "Antiarrhythmic Effect (no. animals) abs", "setting": "mice; [1]", "value": 1}, {"measurement": "Result", "setting": "mice; [1]", "value": "No effect"}, {"measurement": "Antiarrhythmic Effect (no. animals) %", "setting": "mice; [2]", "value": 44.4, "unit": "%"}, {"measurement": "Antiarrhythmic Effect (no. animals) abs", "setting": "mice; [2]", "value": 4}, {"measurement": "Result", "setting": "mice; [2]", "value": "Antiarrhythmic effect"}, {"measurement": "Antiarrhythmic Effect (no. animals) %", "setting": "mice; [3]", "value": 44.4, "unit": "%"}, {"measurement": "Antiarrhythmic Effect (no. animals) abs", "setting": "mice; [3]", "value": 4}, {"measurement": "Result", "setting": "mice; [3]", "value": "Antiarrhythmic effect"}, {"measurement": "Antiarrhythmic Effect (no. animals) %", "setting": "mice; [4]", "value": 55.6, "unit": "%"}, {"measurement": "Antiarrhythmic Effect (no. animals) abs", "setting": "mice; [4]", "value": 5}, {"measurement": "Result", "setting": "mice; [4]", "value": "Antiarrhythmic effect"}, {"measurement": "prevention of chloroform-induced ventricular arrhythmias", "setting": "mice; 0.01, 0.1, 1.0, or 10.0 mg/kg", "value": "prevent the development of ventricular arrhythmias"}, {"measurement": "Antiarrhythmic Effect (no. animals) %", "setting": "mice; [5]", "value": 66.7, "unit": "%"}, {"measurement": "Antiarrhythmic Effect (no. animals) abs", "setting": "mice; [5]", "value": 6}, {"measurement": "Result", "setting": "mice; [5]", "value": "Antiarrhythmic effect"}, {"measurement": "effect on calcium-induced intestinal smooth muscle tonic contraction", "setting": "Intestinal Smooth Muscle; 10^-6 and 10^-5 g/ml", "value": "significantly reduced the amplitude"}, {"measurement": "Contraction Amplitude, calcium-induced (% of control level)", "setting": "Intestinal Smooth Muscle; Application I, 10^-6 g/ml", "value": 51.08, "unit": "%"}, {"measurement": "Contraction Amplitude, calcium-induced (% of control level)", "setting": "Intestinal Smooth Muscle; Application II, 10^-5 g/ml", "value": 33.14, "unit": "%"}, {"measurement": "Area Under Curve of KCl-Induced Contraction (% of control)", "setting": "Rat Portal Vein; 10^-6 g/ml, 60 mM KCl", "value": 90.26, "unit": "%"}, {"measurement": "effect on tonic contraction induced by KCl", "setting": "Rat Portal Vein; venous smooth muscle specimens", "value": "neither GE nor VT effected the character of the tonic contraction"}]}
